Experimental data taken from PMC7377239, “Cardiovascular Effects of Polychlorinated Biphenyls and Their Major Metabolites” (Environmental Health Perspectives, 2020).
Where two headings read alike, the source gives them in different places.

How the values were obtained:
[1] = tested on: iCell cardiomyocytes (human iPSC-derived cardiomyocytes); experiment: High-content imaging of cytotoxicity and mitochondrial integrity in iPSC-CMs; type: cell-based; settings: Homo sapiens; for viability at 0.01 µM / activity at 0.01 µM / viability at 0.1 µM / activity at 0.1 µM / viability at 1 µM / activity at 1 µM / viability at 10 µM / activity at 10 µM / viability at 100 µM / activity at 100 µM: Cardiomyocyte, 0.00 µM = 100.00; for viability at 0.1 µM / activity at 0.1 µM: 0.10 µM; for minimal effective concentration: iPSC-CM
Procedure, shortened: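 Human iPSC-derived cardiomyocytes were seeded on gelatin-coated 384-well plates at 5,000 cells per well and maintained for 12 d. Test chemicals were added as 10μL of 5× solutions to final concentrations of 0.01 to 100μM. Cells were stained with Hoechst 33342 and MitoTracker™ Orange, fixed in formaldehyde, and imaged by confocal high-content microscopy at 10× magnification.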

HUVECs = experiment: High-content imaging cytotoxicity in HUVECs, 24 h; type: cell-based, human; settings: Homo sapiens, HUVEC, 24 h, HUVECs; for viability at 0.01 µM / activity at 0.01 µM / viability at 0.1 µM / activity at 0.1 µM / viability at 1 µM / activity at 1 µM / viability at 10 µM / activity at 10 µM / viability at 100 µM / activity at 100 µM: 0.00 µM = 100.00; for viability at 0.1 µM / activity at 0.1 µM: 0.10 µM; for minimal effective concentration: top concentration 100.00 µM
Procedure, shortened: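 HUVECs (passages 1–5) were plated at 750 cells/well without fibronectin, grown to a monolayer (3–5 d) and exposed to compounds for 24 h at 37°C, 5% CO2. Hoechst 33342, MitoTracker Orange and calcein AM staining was imaged at 10×; readouts were normalized to 0.5% DMSO vehicle and fit to a four-parameter logistic model.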

[2] = 24 hr, read-out: huvec.cyto.24hr
[3] = 24 hr, read-out: huvec.mito.24hr
[4] = 24 hr, read-out: huvec.mitoint.24hr
[5] = 24 hr, read-out: huvec.nma.24hr
[6] = 24 hrs, read-out: huvec.tc.24hrs

SMILES: Clc1ccc(-c2ccccc2)cc1 [PCB3]
- viability at 0.01 µM ([1]; 1.5 h, read-out: cm.cam.90min): 104%
- activity at 0.01 µM ([1]; 1.5 h, read-out: cm.mii.90min): 107%
- activity at 0.01 µM ([1]; 1.5 h, read-out: cm.mito.90min): 104%
- viability at 0.01 µM ([1]; 1.5 h, read-out: cm.tc.90min): 104%
- viability at 0.1 µM ([1]; 1.5 h, read-out: cm.cam.90min): 97.8%
- activity at 0.1 µM ([1]; 1.5 h, read-out: cm.mii.90min): 103%
- activity at 0.1 µM ([1]; 1.5 h, read-out: cm.mito.90min): 97.7%
- viability at 0.1 µM ([1]; 1.5 h, read-out: cm.tc.90min): 97.7%
- viability at 1 µM ([1]; 1.5 h, read-out: cm.cam.90min): 98.5%
- activity at 1 µM ([1]; 1.5 h, read-out: cm.mii.90min): 104%
- activity at 1 µM ([1]; 1.5 h, read-out: cm.mito.90min): 98.3%
- viability at 1 µM ([1]; 1.5 h, read-out: cm.tc.90min): 98.2%
- viability at 10 µM ([1]; 1.5 h, read-out: cm.cam.90min): 99.9%
- activity at 10 µM ([1]; 1.5 h, read-out: cm.mii.90min): 109%
- activity at 10 µM ([1]; 1.5 h, read-out: cm.mito.90min): 99.6%
- viability at 10 µM ([1]; 1.5 h, read-out: cm.tc.90min): 99.5%
- viability at 100 µM ([1]; 1.5 h, read-out: cm.cam.90min): 40.3%
- activity at 100 µM ([1]; 1.5 h, read-out: cm.mii.90min): 141%
- activity at 100 µM ([1]; 1.5 h, read-out: cm.mito.90min): 39.3%
- viability at 100 µM ([1]; 1.5 h, read-out: cm.tc.90min): 40.4%
- viability at 0.01 µM ([1]; 24 h, read-out: cm.cam.24hrs): 87.6%
- activity at 0.01 µM ([1]; 24 h, read-out: cm.mii.24hrs): 109%
- activity at 0.01 µM ([1]; 24 h, read-out: cm.mito.24hrs): 84.7%
- viability at 0.01 µM ([1]; 24 h, read-out: cm.tc.24hrs): 87.2%
- viability at 0.1 µM ([1]; 24 h, read-out: cm.cam.24hrs): 96%
- activity at 0.1 µM ([1]; 24 h, read-out: cm.mii.24hrs): 101%
- activity at 0.1 µM ([1]; 24 h, read-out: cm.mito.24hrs): 93.1%
- viability at 0.1 µM ([1]; 24 h, read-out: cm.tc.24hrs): 95.9%
- viability at 1 µM ([1]; 24 h, read-out: cm.cam.24hrs): 95.4%
- activity at 1 µM ([1]; 24 h, read-out: cm.mii.24hrs): 97.1%
- activity at 1 µM ([1]; 24 h, read-out: cm.mito.24hrs): 91%
- viability at 1 µM ([1]; 24 h, read-out: cm.tc.24hrs): 95.3%
- viability at 10 µM ([1]; 24 h, read-out: cm.cam.24hrs): 91.4%
- activity at 10 µM ([1]; 24 h, read-out: cm.mii.24hrs): 87.2%
- activity at 10 µM ([1]; 24 h, read-out: cm.mito.24hrs): 87.8%
- viability at 10 µM ([1]; 24 h, read-out: cm.tc.24hrs): 90.8%
- viability at 100 µM ([1]; 24 h, read-out: cm.cam.24hrs): 1.51%
- activity at 100 µM ([1]; 24 h, read-out: cm.mii.24hrs): 32%
- activity at 100 µM ([1]; 24 h, read-out: cm.mito.24hrs): 0.72%
- viability at 100 µM ([1]; 24 h, read-out: cm.tc.24hrs): 1.49%
- minimal effective concentration ([1]; 1.5 h, read-out: cm.cam.90min POD): 24.9 µM
- minimal effective concentration ([1]; 1.5 h, read-out: cm.mii.90min POD): 6.86 µM
- minimal effective concentration ([1]; 1.5 h, read-out: cm.mito.90min POD): 21.2 µM
- minimal effective concentration ([1]; 1.5 h, read-out: cm.tc.90min POD): 20 µM
- minimal effective concentration ([1]; 24 h, read-out: cm.cam.24hrs POD): 7.4 µM
- minimal effective concentration ([1]; 24 h, read-out: cm.mii.24hrs POD): 10.9 µM
- minimal effective concentration ([1]; 24 h, read-out: cm.mito.24hrs POD): 6.67 µM
- minimal effective concentration ([1]; 24 h, read-out: cm.tc.24hrs POD): 6.97 µM
- viability at 0.01 µM (HUVECs; [2]): 83.5%
- activity at 0.01 µM (HUVECs; [3]): 83.3%
- activity at 0.01 µM (HUVECs; [4]): 93.5%
- activity at 0.01 µM (HUVECs; [5]): 94.7%
- viability at 0.1 µM (HUVECs; [2]): 87.1%
- activity at 0.1 µM (HUVECs; [3]): 86.7%
- activity at 0.1 µM (HUVECs; [4]): 118%
- activity at 0.1 µM (HUVECs; [5]): 93%
- viability at 1 µM (HUVECs; [2]): 73.5%
- activity at 1 µM (HUVECs; [3]): 72.5%
- activity at 1 µM (HUVECs; [4]): 97.5%
- activity at 1 µM (HUVECs; [5]): 93.1%
- viability at 10 µM (HUVECs; [2]): 87.9%
- activity at 10 µM (HUVECs; [3]): 85.4%
- activity at 10 µM (HUVECs; [4]): 76%
- activity at 10 µM (HUVECs; [5]): 85.2%
- viability at 100 µM (HUVECs; [2]): 56%
- activity at 100 µM (HUVECs; [3]): 44.6%
- activity at 100 µM (HUVECs; [4]): 51%
- activity at 100 µM (HUVECs; [5]): 71%
- minimal effective concentration (HUVECs; 24 hr, read-out: huvec.cyto.24hr POD): 100 µM
- minimal effective concentration (HUVECs; 24 hr, read-out: huvec.mito.24hr POD): 100 µM
- minimal effective concentration (HUVECs; 24 hr, read-out: huvec.mitoint.24hr POD): 100 µM
- minimal effective concentration (HUVECs; 24 hr, read-out: huvec.nma.24hr POD): 100 µM
- viability at 0.01 µM (HUVECs; [6]): 83.5%
- viability at 0.1 µM (HUVECs; [6]): 87.1%
- viability at 1 µM (HUVECs; [6]): 73.7%
- viability at 10 µM (HUVECs; [6]): 88%
- viability at 100 µM (HUVECs; [6]): 56.1%
- minimal effective concentration (HUVECs; 24 hrs, read-out: huvec.tc.24hrs POD): 100 µM
